We go through 20 compounds from patent US11447517B2, “Galactoside inhibitor of galectins” (GALECTO BIOTECH AB, priority 2018, dated 2022).

A short description of data set [1]: Uptake over CACO-2 cell monolayers. In kind it is in vitro ADME. To be noted: human; for Papp A→B: apical to basolateral; for Papp B→A: basolateral to apical; for efflux ratio: read-out: Efflux ratio Papp (B > A/A > B). The source says:
Uptake of a drug over the intestine can be predicted measuring the uptake over a monolayer of CACO-2 cells measured as Papp(10^-6 cm/s). […] By introduction of small alkyl substituents to the galactoside 2-OH such as compounds of formula (1) results in low or no efflux combined with a high uptake (Papp >10 10^-6 cm/s) over CACO-2 cells from the apical to the basolateral side of the cells.
(In general: Passage across Caco-2 layers is used to estimate intestinal permeability.)

A further data set concerns galectins. The settings on record: cited from earlier work.
In a further data set the target is galectin-3 (Homo sapiens (Human), UniProt P17931). The data set can be described thus: Fluorescence anisotropy assay, inhibition of galectin / fluorescein tagged saccharide probe interaction. In kind it is binding. The protocol:
Evaluation of Kd Values The affinity of Example 1-71 for galectins were determined by a fluorescence anisotropy assay where the compound was used as an inhibitor of the interaction between galectin and a fluorescein tagged saccharide probe as described Sörme, P., Kahl-Knutsson, B., Huflejt, M., Nilsson, U. J., and Leffler H. (2004) Fluorescence polarization as an analytical tool to evaluate galectin-ligand interactions. Anal. Biochem. 334: 36-47, (Sörme et al., 2004) and Monovalent interactions of Galectin-1 By Salomonsson, Emma; Larumbe, Amaia; Tejler, Johan; Tullberg, Erik; Rydberg, Hanna; Sundin, Anders; Khabut, Areej; Frejd, Torbjorn; Lobsanov, Yuri D.; Rini, James M.; et al, From Biochemistry (2010), 49(44), 9518-9532, (Salomonsson et al., 2010). […] 100 nM albumin was included as a carrier to prevent protein loss at such low concentration of galectin.
For orientation: Polarisation of emitted light reports the rotation of a fluorescent probe.

Chain of galectin-3 (P17931 whole entry): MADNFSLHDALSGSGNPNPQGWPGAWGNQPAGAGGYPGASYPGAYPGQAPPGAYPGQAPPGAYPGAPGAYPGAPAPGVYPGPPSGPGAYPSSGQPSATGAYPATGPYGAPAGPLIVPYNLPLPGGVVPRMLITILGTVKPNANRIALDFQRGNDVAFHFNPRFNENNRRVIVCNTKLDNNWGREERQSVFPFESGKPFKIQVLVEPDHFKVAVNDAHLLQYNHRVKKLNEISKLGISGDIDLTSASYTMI

For `Cc1ccc(-c2cn([C@@H]3C(O)[C@@H](Sc4cc(Cl)cnc4C#N)OC(CO)[C@@H]3O)nn2)cc1F` (some centres unmarked), in data set [1], the Papp A→B is 3 ×10⁻⁶ cm/s, the Papp B→A turned out to be 30 ×10⁻⁶ cm/s and the efflux ratio is 10.

Turning to `N#Cc1ncc(Cl)cc1S[C@H]1OC(CO)[C@H](O)[C@H](n2cc(-c3cc(F)c(Cl)c(F)c3)nn2)C1O` (some centres unmarked), in data set [1], the Papp A→B came to 5 ×10⁻⁶ cm/s, the basolateral-to-apical permeability (Papp B→A) came to 46 ×10⁻⁶ cm/s and the efflux ratio is 9.

As to `OCC1O[C@H](Sc2cncc(Cl)c2)C(O)[C@@H](n2cc(-c3cc(F)c(F)c(F)c3)nn2)[C@H]1O` (some centres unmarked), in data set [1], the apparent permeability from apical to basolateral (Papp A→B) is 4 ×10⁻⁶ cm/s, the Papp B→A came to 36 ×10⁻⁶ cm/s and the efflux ratio was determined as 9.

As to `O=C[C@H](O)[C@@H](O)[C@@H](O)[C@H](O)CO` [D-galactose], the “Affinity, times lower than lactose” value with galectins (relative to lactose) is on record as 50-100 times.

On galectin-3, `CO[C@@H]1[C@@H](n2cc(-c3cc(F)c(F)c(F)c3)nn2)[C@@H](O)[C@@H](CO)O[C@@H]1Sc1cncc(Br)c1` [Example 1, 5-Bromopyridin-3-yl 3-deoxy-3-[4-(3,4,5-trifluorophenyl)-1H-1,2,3-triazol-1-yl]-2-O-methyl-1-thio-α-D-galactopyranoside] had a Kd of 0.025 µM. Moreover, in data set [1], the Papp A→B was determined as 30 ×10⁻⁶ cm/s, the Papp B→A came out at 38 ×10⁻⁶ cm/s and the efflux ratio came out at 1.2.

The compound `CO[C@@H]1[C@@H](n2cc(-c3ccc(C)c(F)c3)nn2)[C@@H](O)[C@@H](CO)O[C@@H]1Sc1cc(Cl)cnc1C#N` [Example 13, 5-Chloro-2-cyanopyridin-3-yl 3-deoxy-3-[4-(3-fluoro-4-methylphenyl)-1H-1,2,3-triazol-1-yl]-2-O-methyl-1-thio-α-D-galactopyranoside] showed a Kd on galectin-3 of 0.014 µM. For the same compound, in data set [1], the Papp A→B was 18 ×10⁻⁶ cm/s, the Papp B→A is 23 ×10⁻⁶ cm/s and the efflux ratio was found to be 1.3.

Consider `CO[C@@H]1[C@@H](n2cc(-c3ccc(C)c(F)c3)nn2)[C@@H](O)[C@@H](CO)O[C@@H]1Sc1cncc(Cl)c1` [Example 35, 5-Chloropyridin-3-yl 3-deoxy-3-[4-(3-fluoro-4-methylphenyl)-1H-1,2,3-triazol-1-yl]-2-O-methyl-1-thio-α-D-galactopyranoside], for which the Kd on galectin-3 stood at 0.045 µM. In data set [1], the Papp A→B is 31 ×10⁻⁶ cm/s, the basolateral-to-apical permeability (Papp B→A) turned out to be 45 ×10⁻⁶ cm/s and the efflux ratio was determined as 1.4.

The compound `CO[C@@H]1[C@@H](n2cc(-c3ccc(C)c(F)c3)nn2)[C@@H](O)[C@@H](CO)O[C@@H]1Sc1cncc(Br)c1` [Example 36, 5-Bromopyridin-3-yl 3-deoxy-3-[4-(3-fluoro-4-methylphenyl)-1H-1,2,3-triazol-1-yl]-2-O-methyl-1-thio-α-D-galactopyranoside] gave a Kd on galectin-3 of 0.026 µM. For the same compound, in data set [1], the Papp A→B was determined as 28 ×10⁻⁶ cm/s, the Papp B→A turned out to be 32 ×10⁻⁶ cm/s and the efflux ratio is 1.1.

Take `CO[C@@H]1[C@@H](n2cc(-c3ccc(C)c(F)n3)nn2)[C@@H](O)[C@@H](CO)O[C@@H]1Sc1cncc(Cl)c1` [Example 43, 5-Chloropyridin-3-yl 3-deoxy-3-[4-(6-fluoro-5-methylpyridin-2-yl)-1H-1,2,3-triazol-1-yl]-2-O-methyl-1-thio-α-D-galactopyranoside]: the Kd at galectin-3 was determined as 0.039 µM. Further, in data set [1], the Papp A→B came out at 26 ×10⁻⁶ cm/s, the basolateral-to-apical permeability (Papp B→A) is 34 ×10⁻⁶ cm/s and the efflux ratio was determined as 1.3.

At galectin-3, `CO[C@@H]1[C@@H](n2cc(-c3ccc(Cl)c(F)n3)nn2)[C@@H](O)[C@@H](CO)O[C@@H]1Sc1cc(Cl)cnc1C#N` [Example 55, 5-Chloro-2-cyanopyridin-3-yl 3-[4-(5-chloro-6-fluoropyridin-2-yl)-1H-1,2,3-triazol-1-yl]-3-deoxy-2-O-methyl-1-thio-α-D-galactopyranoside] had a Kd of 0.35 µM.

At galectin-3, `C#Cc1cnc(C#N)c(S[C@H]2O[C@H](CO)[C@H](O)[C@H](n3cc(-c4cc(F)c(Cl)c(F)c4)nn3)[C@H]2OC)c1` [Example 56, 2-Cyano-5-ethynylpyridin-3-yl 3-[4-(4-chloro-3,5-difluorophenyl)-1H-1,2,3-triazol-1-yl]-3-deoxy-2-O-methyl-1-thio-α-D-galactopyranoside] registered a Kd of 0.028 µM.

On galectin-3, `C#Cc1cnc(C#N)c(S[C@H]2O[C@H](CO)[C@H](O)[C@H](n3cc(-c4cc(F)c(C)c(F)c4)nn3)[C@H]2OC)c1` [Example 57, 2-Cyano-5-ethynylpyridin-3-yl 3-deoxy-3-[4-(3,5-difluoro-4-methylphenyl)-1H-1,2,3-triazol-1-yl]-2-O-methyl-1-thio-α-D-galactopyranoside] registered a Kd of 0.035 µM.

`CO[C@@H]1[C@@H](n2cc(-c3cc(F)c(Cl)c(F)c3)nn2)[C@@H](O)[C@@H](CO)O[C@@H]1Sc1cnc(C(F)(F)F)c(C#N)c1` [Example 58, 5-Cyano-6-trifluoromethylpyridin-3-yl 3-[4-(4-chloro-3,5-difluorophenyl)-1H-1,2,3-triazol-1-yl]-3-deoxy-2-O-methyl-1-thio-α-D-galactopyranoside] showed an equilibrium dissociation constant (Kd) at galectin-3 of 0.19 µM.

`CO[C@@H]1[C@@H](n2cc(-c3cc(F)c(F)c(F)c3)nn2)[C@@H](O)[C@@H](CO)O[C@@H]1Sc1cncc(C#N)c1` [Example 59, 5-Cyanopyridin-3-yl 3-deoxy-3-[4-(3,4,5-trifluorophenyl)-1H-1,2,3-triazol-1-yl]-2-O-methyl-1-thio-α-D-galactopyranoside] displayed a Kd on galectin-3 of 0.076 µM.

At galectin-3, `CO[C@@H]1[C@@H](n2cc(-c3cc(F)c(Cl)c(F)c3)nn2)[C@@H](O)[C@@H](CO)O[C@@H]1Sc1cncc(C#N)c1` [Example 60, 5-Cyanopyridin-3-yl 3-[4-(4-chloro-3,5-difluorophenyl)-1H-1,2,3-triazol-1-yl]-3-deoxy-2-O-methyl-1-thio-α-D-galactopyranoside] returned a dissociation constant Kd of 0.08 µM.

`CO[C@@H]1[C@@H](n2cc(-c3cc(F)c(F)c(F)c3)nn2)[C@@H](O)[C@@H](CO)O[C@@H]1Sc1cc(Br)ccc1C(=O)N1CCC1` [Example 64, 2-(N-azetidinyl-carbonyl)-5-bromophenyl 3-deoxy-3-[4-(3,4,5-trifluorophenyl)-1H-1,2,3-triazol-1-yl]-2-O-methyl-1-thio-α-D-galactopyranoside]: the Kd at galectin-3 was 0.016 µM.

Regarding `CCO[C@@H]1[C@@H](n2cc(-c3cc(F)c(F)c(F)c3)nn2)[C@@H](O)[C@@H](CO)O[C@@H]1Sc1cc(Br)ccc1C(=O)N1CCC1` [Example 65, 2-(N-azetidinyl-carbonyl)-5-bromophenyl 3-deoxy-3-[4-(3,4,5-trifluorophenyl)-1H-1,2,3-triazol-1-yl]-2-O-ethyl-1-thio-α-D-galactopyranoside], the Kd on galectin-3 was 0.018 µM.

On to `CO[C@@H]1[C@@H](n2cc(-c3cc(F)c(F)c(F)c3)nn2)[C@@H](O)[C@@H](CO)O[C@@H]1Sc1cc(Cl)ccc1C(=O)N1CCC1` [Example 70, 2-(N-azetidinyl-carbonyl)-5-chlorophenyl 3-deoxy-3-[4-(3,4,5-trifluorophenyl)-1H-1,2,3-triazol-1-yl]-2-O-methyl-1-thio-α-D-galactopyranoside], for which the Kd at galectin-3 was 0.012 µM.

In the case of `CO[C@@H]1[C@@H](n2cc(-c3cc(F)c(Cl)c(F)c3)nn2)[C@@H](O)[C@@H](CO)O[C@@H]1Sc1ccc(Cl)c(Cl)c1` [Example 71, 3,4-Dichlorophenyl 3-[4-(4-chloro-3,5-difluorophenyl)-1H-1,2,3-triazol-1-yl]-3-deoxy-2-O-methyl-1-thio-α-D-galactopyranoside], on galectin-3, binding was put at a Kd of 0.25 µM.

In the case of `OC[C@H]1O[C@@H](O[C@H]2[C@H](O)[C@@H](O)C(O)O[C@@H]2CO)[C@H](O)[C@@H](O)[C@H]1O` (some centres unmarked) [lactose], the dissociation constant Kd at galectins (Leffler 2001, Leffler et al. 2004, read-out: Kd, all galectins) is 500 to 1000 µM.

As a reminder, the Papp A→B is how fast a substance crosses the layer from the apical side. Higher therefore signals ready permeation. As usually defined, the Papp B→A is the apparent permeability from the basolateral to the apical side of a cell layer. Broadly, the Kd is the concentration at which binding is half-saturated.
